Source: patent US5182113A, “Factor Xa inibitor from leech and pharmaceutical compositions containing same” (Bio-Technology General Corp., priority 1988, dated 1993)
Entries after “also recorded” stand apart in the source; their conditions may differ.

Assays:
F.Xa = conditions: substrate affinity; cited from earlier work
bovine thrombin = assay: Inhibition of bovine thrombin activity on chromogenic substrate; type: biochemical; conditions: result in words
Method: (§1) Regarding the methods, synthetic substrates having a chromogenic end group such as pNA (para- nitroanilide) are preferably used, enabling easy monitoring of the progress of the coagulation by spectrophotometer methods. […] The reactions were monitored at 405 nm in a spectrophotometer connected to a computer and the kinetic parameter were calculated from the appropriate extinction coefficients by a Jackson-Labanowski linear regression program. The measurements were carried out in disposable polystyrene cuvettes at pH of 7.8 and a temperature of 25° C.

bovine F.Xa = assay: Affinity binding to bovine F.Xa immobilized on Affi-Gel 10; conditions: leech saliva passed through column, pH 7.9
Method: The inhibitor/modulator of the present invention may be isolated from the saliva by adsorption on an Affi-Gel column on which bovine F.Xa is fixed and subsequent elution with acetic acid. Hirudin was not adsorbed on said gel. Affi-Gel 10 is used, which is a derivatized ross-linked agarose containing a 10-atom spacer arm esterified to N-hydroxysuccinimide. The capacity of this gel is 10 micromoles/ml.
1. Coupling. To 1ml washed Affi-Gel 10 in a mini-column were added 2ml of a dialyzed BXa solution (40 nmoles) in 0.05 M Hepes/0.1 M NaCl buffer pH 7.5. The column was shaken for 2 h at room temp. The supernatant was then run off the column, which was not allowed to dry. Ninety four percent of the BXa load was bound to the gel.
3. Affinity binding of XaM. Leech saliva (40 ml, 305 pmoles XaM) was adjusted to pH 7.9 by adding 1% v/v 1M Tris pH 8 and was passed through the column. Ninety two percent of the XaM was bound to the gel. Hirudin was not bound.

bovine Factor Xa [1] = assay: Inhibition of bovine Xa activity on chromogenic substrate; type: biochemical; conditions: result in words
Method: as §1

bovine Factor Xa [2] = conditions: literature (Tuszynski, Gasic and Gasic 1987); cited from earlier work

N=C(N)NCCC[C@H](NC(=O)[C@@H]1CCCCN1C(=O)[C@H](N)Cc1ccccc1)C(=O)Nc1ccc([N+](=O)[O-])cc1 [S2238, D-Phe-Pipecolyl-L-Arg-pNa]
Km (F.Xa): 46.9 µM

hirudin
inhibition of thrombin (bovine thrombin): inhibits thrombin
adsorption on Affi-Gel with fixed bovine F.Xa (bovine F.Xa): not adsorbed; also recorded: not bound
inhibition of bovine F.Xa (bovine Factor Xa [1]): does not inhibit bovine F.Xa

B1: antistasin (protein, UniProt P15358 18-136, looked up)
Antistasin: QGPFGPGCEEAGCPEGSACNIITDRCTCSGVRCRMHCPHGFQRSRYGCEFCKCRLEPMKATCDISECPEGMMCSRLTNKCDCKIDINCRKTCPNGLKRDKLGCEYCECRPKRKLIPRLS
remaining BXa activity at which the dose-response curve flattens out (bovine Factor Xa [2]): about 50%
